Our source for the EC50 and activation values is patent US20260199273A1, “Compounds for the Treatment of Neuromuscular Disorders” (NMD PHARMA A/S, priority 2022, published 2026).

Test [1] has as its target T1, CIC-1 ion channel (Rattus norvegicus, UniProt P35524).
T1 construct: from tissue; host or cells: whole soleus muscle of 12-14 week old Wistar rats
T1 sequence (P35524 1-994): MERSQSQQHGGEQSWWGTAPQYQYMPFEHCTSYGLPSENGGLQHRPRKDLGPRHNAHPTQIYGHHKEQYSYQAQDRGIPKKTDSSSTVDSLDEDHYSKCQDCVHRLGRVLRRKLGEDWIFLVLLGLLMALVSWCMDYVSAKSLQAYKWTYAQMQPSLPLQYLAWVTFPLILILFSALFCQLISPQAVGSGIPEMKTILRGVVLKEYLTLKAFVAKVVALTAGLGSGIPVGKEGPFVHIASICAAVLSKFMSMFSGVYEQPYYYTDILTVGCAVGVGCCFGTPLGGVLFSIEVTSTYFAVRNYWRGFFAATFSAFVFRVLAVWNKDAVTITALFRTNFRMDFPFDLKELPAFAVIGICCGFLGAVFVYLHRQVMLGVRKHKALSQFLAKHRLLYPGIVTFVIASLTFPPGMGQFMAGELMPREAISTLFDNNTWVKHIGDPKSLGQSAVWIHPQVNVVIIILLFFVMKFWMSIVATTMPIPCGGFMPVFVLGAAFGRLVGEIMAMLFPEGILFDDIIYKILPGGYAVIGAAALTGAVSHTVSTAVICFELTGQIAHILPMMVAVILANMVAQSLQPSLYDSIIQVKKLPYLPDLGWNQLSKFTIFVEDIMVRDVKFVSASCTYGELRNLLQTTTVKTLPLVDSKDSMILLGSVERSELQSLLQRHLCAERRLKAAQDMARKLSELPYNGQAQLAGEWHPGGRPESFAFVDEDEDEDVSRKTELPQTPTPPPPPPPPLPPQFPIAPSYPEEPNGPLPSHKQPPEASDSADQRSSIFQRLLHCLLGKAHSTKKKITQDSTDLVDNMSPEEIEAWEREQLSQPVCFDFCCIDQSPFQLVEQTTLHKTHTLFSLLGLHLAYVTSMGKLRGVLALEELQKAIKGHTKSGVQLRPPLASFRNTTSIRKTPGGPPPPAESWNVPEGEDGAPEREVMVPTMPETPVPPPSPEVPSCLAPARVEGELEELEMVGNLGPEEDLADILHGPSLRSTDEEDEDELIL
Nature of the test: Electrophysiological measurement of compound inhibition of CIC-1 in rat muscle (Gm in soleus fibres, three micro-electrodes). In kind it is cell-based. The note with it: Gm in individual fibres of whole rat soleus muscles, approx. 30° C., four increasing compound concentrations; read-out: Potency Range (EC50, inhibition of CIC-1 ion channel). As to the method:
Apparent CIC-1 affinity was reported by the concentration of compound at which 50% of the compound's full inhibition of CIC-1 was observed (EC50) (see also WO2019/115777).
Experimentally, Gm was measured in individual fibres of whole rat soleus muscles using a three micro-electrodes technique described in this example and in full detail elsewhere (Riisager et al., Determination of cable parameters in skeletal muscle fibres during repetitive firing of action potentials. Journal of Physiology, 2014, 592, 4417-4429). Briefly, intact rat soleus muscles were dissected out from 12-14 week old Wistar rats and placed in an experimental chamber that was perfused with a standard Krebs Ringer solution containing 122 mM NaCl, 25 mM NaHCO3, 2.8 mM KCl, 1.2 mM KH2PO4, 1.2 mM MgSO4, 1.3 mM CaCl2, 5.0 mM D-glucose. During experiments, the solution was kept at approx. 30° C. and continuously equilibrated with a mixture of 95% O2 and 5% CO2, pH ~7.4. The experimental chamber was placed in Nikon upright microscope that was used to visualize individual muscle fibres and the three electrodes (glass pipettes filled with 2 M potassium citrate). For Gm measurements, the electrodes were inserted into the same fibre with known inter-electrode distances of 0.35-0.5 mm (V1-V2, X1) and 1.1-1.5 mm (V1-V3, X3). The membrane potential of the impaled muscle fibre was recorded by all electrodes. Two of the electrodes were furthermore used to inject 50 ms current pulses of −30 nA. […] The steady state voltage deflection at each distance was divided by the magnitude of current injected (−30 nA) and the resulting transfer resistances were plotted against inter-electrode distance and the data was fitted to a mono-exponential function from which Gm could be calculated using linear cable theory.
To establish a dose response relationship, Gm was first determined in 10 muscle fibres in the absence of compound and then at four increasing compound concentrations with Gm determinations in 5-10 fibres at each concentration. The average Gm values at each concentration were plotted against compound concentration and the data was fitted to sigmoidal function to obtain an EC5o value.

The subject of test [2] is isolated rat soleus nerve-muscle preparations. Description: Measurement of force in an in vitro model: recovery of nerve-stimulated contractile force after tubocurarine. The note with it: 40 min, after 40 mins of compound exposure, tubocurarine (115 nM) for 90 minutes, read-out: Point increase (%): percentage increase of initial force that was restored; for activation at 10 µM: 10 μM of test compound; for activation at 50 µM: 50 μM of test compound. As to the method: In one aspect, the invention relates to a method for recovery of force in muscles with neuromuscular dysfunction, said method comprising administering a compound or a composition as defined herein to a subject in need thereof. The term “recovery of force in muscles with neuromuscular dysfunction” as used herein refers to the ability of a compound to recover contractile force in nerve-stimulated healthy rat muscle after exposure to submaximal concentration (115 nM) of tubocurarine for 90 minutes.
Recovery of force is quantified as the percentage of the force prior to tubocurarine that is recovered after addition of the compound. In one embodiment, said recovery of force is >5%, such as >10%, such as >15%, such as >20%, such as >25%, such as >30%, such as >35%.
The current disclosure relates to compounds that inhibit CIC-1 ion channels and increase muscle excitability and thereby improve muscle function in clinical conditions where muscle activation is failing. Such conditions result in loss of contractile function of skeletal muscle, weakness and excessive fatigue. In this series of experiments the compounds were tested for their ability to restore contractile function of isolated rat muscle when the neuromuscular transmission had been compromised akin to neuromuscular disorders.
Experimentally, soleus muscles from 4-5 week old rats were isolated with the motor nerve remaining attached. The nerve-muscle preparations were mounted in experimental setups that enabled electrical stimulation of the motor nerve. Stimulation of the motor nerve led to activation of the muscle fibres and ensuing force production that was recorded. The nerve-muscle preparations were also in these experiments incubated in the standard Krebs Ringer (see example 15) and the solution was heated to 30° C. and continuously equilibrated with a mixture of 95% O2 and 5% CO2, pH ~7.4.
After mounting the nerve-muscle preparation in the experimental setup, the contractile function of the muscle was initially assessed under the control conditions. Sub-maximal concentration of tubocurarine (115 nM), an acetylcholine receptor antagonist, was then added to the experimental bath to impose partial inhibition of the ability of the motor nerve to activate the muscle fibres. The experimental condition mimics the failing neuromuscular transmission in a range of neuromuscular disorders. After addition of tubocurarine the contractile force declined over the next 90 minutes to 10-50% of the control force. The test compound was then added to obtain the required compound concentration in the bath and the contractile force recovered was measured. To quantify the ability of the compound to restore force the percentage of the initial force that was restored was determined after 40 mins of compound exposure and the point increase is reported in Tables 3 to 7.

With `Cc1cc2c(c(C(=O)O)c1F)CCCC2` [Compound A-49, 2-Fluoro-3-methyl-5,6,7,8-tetrahydronaphthalene-1-carboxylic acid], the EC50 in test [1] lay in the range of 0.2 to 2 µM. In test [2], the activation at 10 µM stood at 40%.
Take `COc1c(Cl)cc2c(c1C(=O)O)C(F)(F)CCC2` [Compound A-59, 3-chloro-8,8-difluoro-2-methoxy-5,6,7,8-tetrahydronaphthalene-1-carboxylic acid]: in test [1], the EC50 fell in the range of 2 to 10 µM. In test [2], the activation at 10 µM worked out at 53%.
The corresponding values for `COc1c(Cl)cc2c(c1C(=O)O)C1CCC2C1` (stereo not drawn) [Compound A-16, 5-Chloro-4-methoxytricyclo[6.2.1.0^2,7]undeca-2(7),3,5-triene-3-carboxylic acid] are 0.2 to 2 µM and 43%.
With `Cc1cc2c(c(C(=O)O)c1F)OCCC2` [Compound A-50, 7-fluoro-6-methyl-3,4-dihydro-2H-1-benzopyran-8-carboxylic acid], the EC50 in test [1] is 2 to 10 µM. Besides, the activation at 50 µM in test [2] is 51%.
For `C=Cc1c(Cl)cc2c(c1C(=O)O)CCCC2` [Compound A-35, 3-Chloro-2-ethenyl-5,6,7,8-tetrahydronaphthalene-1-carboxylic acid], the EC50 in test [1] was 0.2 to 2 µM. Also, in test [2], the activation at 10 µM turned out to be 16%.
On to `O=C(O)c1cc(Cl)c(F)c2c1CCCC2` [Compound A-17, 3-Chloro-4-fluoro-5,6,7,8-tetrahydronaphthalene-1-carboxylic acid], for which the EC50 in test [1] was 10 to 20 µM. For the same molecule, in test [2], the activation at 50 µM worked out at 41%.
On to `COc1c(C)cc2c(c1C(=O)O)CCC2` [Compound A-47, 5-Methoxy-6-methyl-2,3-dihydro-1H-indene-4-carboxylic acid], for which, in test [1], the EC50 lay within 2 to 10 µM. The activation at 50 µM in test [2] turned out to be 37%.
`O=C(O)c1c(F)c(C2CC2)cc2c1CCCC2` [Compound A-54, 3-Cyclopropyl-2-fluoro-5,6,7,8-tetrahydronaphthalene-1-carboxylic acid]: the EC50 in test [1] lay within 10 to 20 µM. Also, the activation at 50 µM in test [2] came out at 47%.
Consider `COc1c(F)cc2c(c1C(=O)O)CCCC2` [Compound A-18, 3-Fluoro-2-methoxy-5,6,7,8-tetrahydronaphthalene-1-carboxylic acid], for which the EC50 in test [1] was 0.2 to 2 µM. Also, in test [2], the activation at 10 µM turned out to be 46%.
For `O=C(O)c1c(F)c(Cl)cc2c1N(Cc1ccccc1)CCC2` [Compound A-71, 1-Benzyl-6-chloro-7-fluoro-1,2,3,4-tetrahydro-8-quinolinecarboxylic acid] the same measures were 0.2 to 2 µM and 23%.
Regarding `O=C(O)c1c2c(cc(Cl)c1OC(F)F)CCCC2` [Compound A-25, 3-Chloro-2-(difluoromethoxy)-5,6,7,8-tetrahydronaphthalene-1-carboxylic acid], in test [1], the EC50 lay in the range of 0.2 to 2 µM. Moreover, the activation at 10 µM in test [2] was found to be 43%.
Take `O=C(O)c1c(F)c(Cl)cc2c1NCCC2` [Compound A-41, 6-Chloro-7-fluoro-1,2,3,4-tetrahydroquinoline-8-carboxylic acid]: the EC50 in test [1] lay within 2 to 10 µM. The activation at 10 µM in test [2] amounted to 49%.
As for `O=C(O)c1c(F)c(F)cc2c1CCCC2` [Compound A-44, 2,3-Difluoro-5,6,7,8-tetrahydronaphthalene-1-carboxylic acid], the EC50 in test [1] lay within 2 to 10 µM. Also, the activation at 50 µM in test [2] worked out at 59%.
`COc1c(Cl)cc2c(c1C(=O)O)C1CCC2CC1` [Compound A-29, 5-Chloro-4-methoxytricyclo[6.2.2.0^2,7]dodeca-2,4,6-triene-3-carboxylic acid]: in test [1], the concentration giving a half-maximal response (EC50) lay within 2 to 10 µM. The activation at 50 µM in test [2] stood at 42%.
Consider `CC1(C)CCc2cc(Cl)cc(C(=O)O)c2O1` [Compound A-53, 6-Chloro-2,2-dimethyl-3,4-dihydro-2H-1-benzopyran-8-carboxylic acid], for which the EC50 in test [1] lay in the range of 0.2 to 2 µM. Besides, in test [2], the activation at 10 µM was 43%.
For the molecule `COc1c(Cl)c(F)c2c(c1C(=O)O)CCCC2` [Compound A-19, 3-Chloro-4-fluoro-2-methoxy-5,6,7,8-tetrahydronaphthalene-1-carboxylic acid], the concentration giving a half-maximal response (EC50) in test [1] fell in the range of 0.2 to 2 µM. In addition, the activation at 50 µM in test [2] was 41%.
The corresponding values for `O=C(O)c1c(F)c(F)cc2c1SCCC2` [Compound A-42, 6,7-difluoro-3,4-dihydro-2H-1-benzothiopyran-8-carboxylic acid] are 10 to 20 µM and 47%.
Regarding `COc1c(Cl)cc2c(c1C(=O)O)CCCC2(F)F` [Compound A-73, 3-Chloro-5,5-difluoro-2-methoxy-5,6,7,8-tetrahydro-1-naphthoic acid], in test [1], the EC50 fell in the range of 0.2 to 2 µM. In addition, the activation at 10 µM in test [2] came out at 23%.
The corresponding values for `CC1(C)CCc2cc(Cl)c(F)c(C(=O)O)c2O1` [Compound A-61, 6-Chloro-7-fluoro-2,2-dimethyl-3,4-dihydro-2H-1-benzopyran-8-carboxylic acid] are 0.2 to 2 µM and 63%.
For `O=C(O)c1c(F)c(Cl)cc2c1CCCO2` [Compound A-39, 7-Chloro-6-fluoro-3,4-dihydro-2H-1-benzopyran-5-carboxylic acid] the same measures were 0.2 to 2 µM and 59%.
Regarding `Cc1cc2c(c(C(=O)O)c1C)CCCC2` [Compound A-5, 2,3-dimethyl-5,6,7,8-tetrahydronaphthalene-1-carboxylic acid], the half-maximal effective concentration (EC50) in test [1] fell in the range of 10 to 20 µM. Further, in test [2], the activation at 50 µM is 43%.

What is called EC50 is the concentration needed to bring the measured effect to its halfway point.
